# Experimental data published in patent US20120171201A1.
# Assays:
# [1] = Pharmacokinetics in tumor free Balb/C mice; assay type: in vivo; conditions: Released from Compound 9; single injection 20 mg/kg Compound 9, Balb/C mice, plasma
# Text: Pharmacokinetic analysis was done using non-compartmental analysis (WinNonlin).
# [2] = Solubility in aqueous saline solution
smiles,measurement,setting,value
CCc1c2c(nc3ccc(O)cc13)-c1cc3c(c(=O)n1C2)COC(=O)[C@]3(O)CC,Terminal t 1/2,[1],14.2 h
same,Solubility in Saline,[2],^a7-ethyl-10-hydroxycamptothecin is not soluble in saline.
